This is an account of results in patent US20210163489A1, “PYRAZOLOPYRIMIDINE DERIVATIVES AND THE COMPOSITIONS AND METHODS OF TREATMENT REGARDING THE SAME” (NysnoBio Ireland DAC, priority 2016, published 2021).

For this experiment, the target named is T1, Parkin ligase (Homo sapiens, UniProt O60260).
T1 construct: Enzyme: Parkin-His tagged 203 μM (10.5 mg/ml)
T1 sequence (O60260 1-465): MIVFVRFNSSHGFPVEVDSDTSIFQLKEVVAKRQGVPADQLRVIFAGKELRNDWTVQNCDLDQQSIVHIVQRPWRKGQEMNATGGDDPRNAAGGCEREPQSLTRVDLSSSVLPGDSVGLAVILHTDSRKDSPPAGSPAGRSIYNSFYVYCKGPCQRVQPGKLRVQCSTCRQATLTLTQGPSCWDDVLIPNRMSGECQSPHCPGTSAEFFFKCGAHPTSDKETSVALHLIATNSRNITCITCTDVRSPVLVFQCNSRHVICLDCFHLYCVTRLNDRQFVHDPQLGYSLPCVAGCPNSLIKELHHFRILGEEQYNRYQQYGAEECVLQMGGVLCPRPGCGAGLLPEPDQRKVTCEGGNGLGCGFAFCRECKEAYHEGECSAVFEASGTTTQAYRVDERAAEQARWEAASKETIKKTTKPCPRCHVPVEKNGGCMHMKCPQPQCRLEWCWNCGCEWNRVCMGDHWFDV
Description: Activity-based probe assay using an ubiquitin vinyl sulfone probe (TR-FRET). Type of experiment: biochemical. The conditions noted are these: activation of heat activated Parkin, HA-Ub-VS probe; read-out: Probe Assay EC50 (μM) [Example 2]. The protocol: An Ubiquitin vinyl sulfone probe can be used that irreversibly binds to the active site cysteine of Parkin ligase. Covalent attachment of the probe to the Parkin can be monitored by TR-FRET. Candidate activator compounds can be identified by increasing the activity of Parkin ligase due to an increase in TR-FRET signal. Screening for activating compounds can be distinguished from the controls as follows:
100% activation signal=Heat activated Parkin+100 nM control activator in DMSO. 0% activation signal=Heat activated Parkin+DMSO only. Parkin activators can be identified by an increase of the 0% activation signal TR-FRET signal.
• Assay Plate: White 384 well plate (Corning 3572) • Enzyme: Parkin-His tagged 203 μM (10.5 mg/ml) • Probe: Ubiquitin vinyl-sulfone (HA-Ub-VS Boston Biochem U-212) • DMSO: DMSO (Sigma cat # D4540-100ML) • Reaction Buffer: 50 mM HEPES (pH 8.5), 150 mM NaCl, 0.01% Tween 20, 0.1% BSA • Detection Buffer: 50 mM HEPES (pH 8.5), 150 mM NaCl, 0.01% Tween 20, 0.1% BSA, 800 mM KF • Detection Reagent A: 2.6 nM Anti-6HIS-Eu cryptate and 40 nM Anti-HA-XL665 in detection buffer • Eu cryptate: Anti-6HIS-Eu cryptate (CisBio 61HISKLA) • XL665: Anti-HA-XL665 (CisBio 610HAXLA) Enzyme Reaction (15 min Pre Incubation Parkin with Activator Only) • Parkin: 40 nM • HA-Ub-VS Probe: 70 nM • Activator/DMSO: 2× Activator/2% DMSO • Reaction time: 60 minutes • Temperature: 22° C. • Total volume: 10 μl reaction
• Take 10 μl of Enzyme Reaction above and add 10 μl detection Reagent A under the following conditions: • Reaction time: 60 minutes • Temperature: 22° C. • Total volume: 20 μl
Assay procedure (Using HP D-300 compound dispenser and Bravo for the operation):
1) Heat activate Parkin in reaction buffer (500 μl/1.5 ml tube: Eppendorf Thermomixer 5 minutes, 400 rpm at 58° C. and put on ice until needed). 2) Load assay plate wells with 4.8 μl 84.5 nM Parkin in reaction buffer by use of Bravo. 3) Deliver 0.2 μl 200× activator candidates in DMSO by use of HP D-300 compound dispenser. Highest 200× concentration=20 μm and then twofold dilutions. 4) Spin 1000 rpm, 2 minutes, at room temp. 5) Incubate plate for 15 minutes at room temp. 6) Add 5 μl 140 nM HA-Ub-VS Probe in reaction buffer by use of Bravo. 7) Spin 1000 rpm, 2 minutes, at room temp. 8) Incubate plate for 60 minutes at room temp. 9) Add 10 μl 2.6 nM Anti-6HIS-Eu cryptate and 40 nM Anti-HA-XL665 in detection buffer. 10) Spin 1000 rpm, 2 minutes, at room temp. 11) Incubate plate for 60 minutes at room temp. 12) Read plates on Perkin Elmer Envision instrument with the following parameters:
LANCE dual laser protocol loaded into the Envision® software
Top Mirror: LANCE/DELFIA Duel/Bias (Bar code 446) Emission Filter: APC 665 EM (Bar code 205) 2nd Emission Filter: Europium 615 EM (Bar code 203) Read […] (channel 1) and 615 nm (channel 2) wavelengths on Envision®
Data Analysis: The Data can be read in CSV files. There are two tables in those CSV files, which are the values of 655 nm (channel 1) and 615 nm (channel 2) wavelengths respectively. The data is converted to an HTRF Ratio=(Channel 1/Channel 2)*10,000
The average of all the 0 uM controls (DMSO only)=BKGD (Background—0% activation). Subtract BKGD from each HTRF Ratio value=HTRF-BKGD. The average of all the […] 100 nM control activator in DMSO controls=Max (100% activation). The following equation is then used to calculate % Activation for each well/candidate as follows: % Activation=(HTRF−BKGD/Max)*100.
Graphpad Prisim was used with Transform X values: X=Log(X) and nonlinear regression (dose-response-stimulation): Log(agonist) vs Response—variable slope (four parameters) with constrains set to Bottom=0 and Top=100.
Background: Time-resolved FRET reads energy transfer from a long-lived donor to a nearby acceptor.

Molecules are shown by their SMILES. “And” between values parts separate entries of the source, which are not always exact repeats. Equal values may be shown once. Bounds are passed on as bounds.

Take `Cc1nn2c(S)cc(C(C)C)nc2c1-c1ccccc1` [H]: the EC50 is over 100 µM.

As for `Oc1c(Cc2ccccc2)cnc2c(-c3ccccc3)cnn12` [Compound W, 6-benzyl-3-phenyl-pyrazolo[1,5-a]pyrimidin-7-ol], the EC50 was over 100 µM.

For the molecule `Cc1nn2c(O)c3c(nc2c1-c1ccccc1)CCN(C)C3` [Compound K3], the 50% effective concentration (EC50) was over 100 µM.

On to `Cc1nn2c(O)cc(C(C)(C)C)nc2c1-c1ccc(Cl)cc1` [F], for which the EC50 turned out to be 16.7 µM.

For `Cc1cc(C)c2c(n1)nn1c(O)c(Cc3ccccc3)c(C)nc21` [NN], the 50% effective concentration (EC50) is over 100 µM.

As for `Sc1c(Cc2ccccc2)cnc2c(-c3ccccc3)cnn12` [Compound Z, 6-benzyl-3-phenyl-pyrazolo[1,5-a]pyrimidin-7-thiol], the EC50 stood at 5.9 µM.

On to `Cc1cc2nc(C)c(Cc3ccc(Cl)cc3)c(S)n2n1` [Compound R, 6-[(4-chlorophenyl)methyl]-2,5-dimethyl-pyrazolo[1,5-a]pyrimidine-7-thiol], for which the EC50 is 18.2 µM.

As to `Cc1ccc(-c2cnn3c(O)c4c(nc23)CN(C)CC4)cc1` [Compound P3], the EC50 was over 100 µM.

For the molecule `Cc1cc(S)n2nc(C)c(-c3ccc(Cl)cc3)c2n1` [N], the concentration giving a half-maximal response (EC50) was over 100 µM.

For the molecule `Cc1nc2c(C(F)(F)F)c(C)nn2c(S)c1Cc1ccccc1` [LL], the half-maximal effective concentration (EC50) stood at 34.1 µM.

Regarding `CCc1nn2c(S)cc(C)nc2c1-c1ccc(F)cc1` [Compound I], the EC50 is over 100 µM.

`Cc1cc(S)n2nc(C)c(-c3ccccc3)c2n1` [O]: the half-maximal effective concentration (EC50) is over 100 µM.

As to `Cc1cc(S)n2ncc(-c3cnn(C)c3)c2n1` [VV], the EC50 was over 100 µM.

Consider `Cc1nc2c(-c3ccccc3)c(C)nn2cc1Cc1ccccc1` [QQ], for which the EC50 is over 100 µM.

For the molecule `Cc1nc2c(-c3ccccc3)c(C)nn2c(O)c1Cc1ccccn1` [Compound Y, 2,5-dimethyl-3-phenyl-6-(2-pyridylmethyl)pyrazolo[1,5-a]pyrimidin-7-ol], the EC50 was over 100 µM.

As for `Cc1cc(O)n2ncc(-c3cccc(N(C)C)c3)c2n1` [Compound M3], the EC50 worked out at 96.3 µM.

In the case of `Cc1nn2c(S)c3c(nc2c1-c1ccccc1)CCOC3` [WW], the concentration giving a half-maximal response (EC50) was determined as 71 µM.

Consider `CC(C)(C)c1cc(O)n2ncc(-c3ccc(Cl)cc3)c2n1` [Compound G], for which the 50% effective concentration (EC50) came out at 53.5 µM.

Regarding `COc1ccccc1-c1c(C)nn2c(S)cc(C)nc12` [Compound D], the EC50 is over 100 µM.

Take `Cc1nc2c(-c3ccccc3)c(C)nn2c(O)c1Cc1ccncc1` [Compound X, 2,5-dimethyl-3-phenyl-6-(4-pyridylmethyl)pyrazolo[1,5-a]pyrimidin-7-ol]: the EC50 is over 100 µM.

For the molecule `CC(C)(C)c1cc(O)n2ncc(-c3ccccc3)c2n1` [J], the EC50 is 35.4 µM.

`Cc1nc2c(C(=O)N(C)C)c(C)nn2c(O)c1Cc1ccccc1` [EE]: the EC50 was over 100 µM.

Turning to `Cc1nc2c(C(F)(F)F)c(C)nn2c(O)c1Cc1ccccc1` [JJ], the EC50 was over 100 µM.

Take `Cc1nc2c(C3CCN(C)CC3)c(C)nn2c(S)c1Cc1ccccc1` [Compound N3]: the 50% effective concentration (EC50) was over 100 µM.

As for `CCCc1cc(S)n2nc(C)c(-c3ccccc3)c2n1` [Compound B], the EC50 was over 100 µM.

As to `Cc1cc2nc(C)c(Cc3ccccc3)c(O)n2n1` [Q], the EC50 is over 100 µM.

For `Cc1nn2c(O)c(CC(C)C)cnc2c1-c1ccccc1` [Compound I3], the half-maximal effective concentration (EC50) is over 100 µM.

Take `COc1ccc(-c2cnn3c(O)cc(C)nc23)cc1` [Compound J3]: the concentration giving a half-maximal response (EC50) was over 100 µM.

Consider `Cc1nc2c(-c3ccccn3)c(C)nn2c(S)c1Cc1ccccc1` [HH], for which the 50% effective concentration (EC50) is 74.2 µM.

Take `Cc1nc2c(-c3ccncc3)c(C)nn2c(S)c1Cc1ccccc1` [MM]: the EC50 stood at 7.6 µM.

For the molecule `Cc1nc2c(C#N)c(C)nn2c(O)c1Cc1ccccc1` [Compound GG, 6-benzyl-7-hydroxy-2,5-dimethyl-pyrazolo-[1,5-a]pyrimidine-3-carbonitrile], the 50% effective concentration (EC50) was over 100 µM.

On to `Cc1nn2c(S)c3c(nc2c1-c1ccccc1)COC3` [XX], for which the 50% effective concentration (EC50) came to 55.6 µM.

On to `COc1ccc(Cn2ccc(-c3cnn4c(S)cc(C)nc34)cc2=O)cc1` [Compound B3], for which the 50% effective concentration (EC50) amounted to 46 µM.

With `Cc1cc(C)c2c(n1)nn1c(S)c(Cc3ccccc3)c(C)nc21` [RR], the EC50 is 27.3 µM.

Turning to `Cc1nn2c(S)c3c(nc2c1-c1ccccc1)CCCC3` [Compound K], the concentration giving a half-maximal response (EC50) is 3.3 µM and 3.6 µM.

Consider `Cc1nn2c(S)c(Cc3ccccc3)cnc2c1-c1ccccc1` [Compound DD, 6-benzyl-2-methyl-3-phenyl-pyrazolo[1,5-a]pyrimidin-7-thiol], for which the EC50 worked out at 6.5 µM.

With `Cc1nc2c(C(=O)N(C)C)c(C)nn2c(S)c1Cc1ccccc1` [II], the EC50 was over 100 µM.

For `Cc1nc2c(-c3cccnc3)c(C)nn2c(O)c1Cc1ccccc1` [Compound L3], the EC50 is over 100 µM.

Consider `Cc1nc2c(-c3ccccc3)c(C)nn2c(S)c1Cc1ccccn1` [Compound BB, 2,5-dimethyl-3-phenyl-6-(2-pyridylmethyl)pyrazolo[1,5-a]pyrimidine-7-thiol], for which the 50% effective concentration (EC50) is 14.9 µM.

Regarding `Cc1nc2c(C#N)c(C)nn2c(S)c1Cc1ccccc1` [OO], the EC50 was over 100 µM.

In the case of `CNc1c2c(nc3c(-c4ccccc4)c(C)nn13)CCN(C)C2` [YY], the half-maximal effective concentration (EC50) is over 100 µM.

On to `Cc1ccc(-c2cnn3c(O)cc(C)nc23)cc1` [Compound H3], for which the EC50 amounted to 51 µM.

With `Cc1nc2c(C3CCN(C)CC3)c(C)nn2c(O)c1Cc1ccccc1` [Compound O3], the EC50 is over 100 µM.

As to `Cc1cc2nc(C)c(Cc3ccccc3)c(S)n2n1` [S], the half-maximal effective concentration (EC50) was 27.9 µM.

Regarding `Cc1cc2nc(C)c(Cc3ccc(Cl)cc3)c(O)n2n1` [Compound P, 6-[(4-chlorophenyl)methyl]-2,5-dimethyl-pyrazolo[1,5-a]pyrimidin-7-ol], the concentration for a half-maximal effect (EC50) is 61.4 µM.

For `Cc1nn2c(O)c(Cc3ccccc3)cnc2c1-c1ccccc1` [Compound V, 6-benzyl-2-methyl-3-phenyl-pyrazolo[1,5-a]pyrimidin-7-ol], the EC50 was over 100 µM.

With `Cc1cc(S)n2ncc(-c3cc[nH]c(=O)c3)c2n1` [Compound A3], the 50% effective concentration (EC50) was over 100 µM.

Consider `Cc1nc2c(-c3ccccc3)c(C)nn2c(O)c1Cc1ccccc1` [T], for which the half-maximal effective concentration (EC50) turned out to be 49.1 µM.

Consider `Cc1nc2c(-c3ccccn3)c(C)nn2c(O)c1Cc1ccccc1` [FF], for which the EC50 was found to be 17.8 µM.

For `Cc1cc(O)n2nc(C)c(-c3ccc(Cl)cc3)c2n1` [M], the concentration for a half-maximal effect (EC50) is over 100 µM.

In the case of `Cc1cc(O)n2ncc(-c3ccc(F)cc3)c2n1` [PP], the concentration for a half-maximal effect (EC50) was over 100 µM.

`Cc1cc(S)n2ncc(-c3ccccc3)c2n1` [Compound C]: the EC50 worked out at 75.3 µM.

In general, EC50 refers to the midpoint of the concentration-response curve.
